Experimental data as given in patent US8258171B2, “pH-sensitive fluorescent probe” (The University of Tokyo, priority 2006, dated 2012).

Key:
[1] = Optical characteristics of pH-sensitive fluorescent probes (absorption, emission, fluorescence quantum yield); format: physicochemical; conditions: for Φfl (fluorescence quantum yield): fluorescein (Φfl = 0.85) as reference
Experimental: (§1) Optical characteristics of the compounds of the present invention, 3a (H2NBDP-PH), 3b (DiMeNBDP-PH), and 3c (DiEtNBDP-PH), and a compound not having an anilinic amino group as a pH detecting moiety, 3d (PhBDP-PH), as a control compound were measured.

[2] = pH-dependent change of fluorescence quantum yield and pKa by Henderson-Hasselbach equation; format: physicochemical; conditions: for pKa: Determined with Henderson-Hasselbach equation using fluorescence quantum yield; for pH-dependency of fluorescence intensity (fluorescence quantum yield): FIG. 1
Experimental: as §1

[3] = N-protonated form, pH 1.47 for 3a, pH 2.00 for 3b and 3c
[4] = control compound without anilinic amino group, no form or pH given

Stokes' shift ([1]; N-nonprotonated form, pH 9.00) | ε ([1]; N-nonprotonated form, pH 9.00) | λabs, max ([1]; N-nonprotonated form, pH 9.00) | λem, max ([1]; N-nonprotonated form, pH 9.00) | Φfl (fluorescence quantum yield) ([1]; N-nonprotonated form, pH 9.00) | Stokes' shift [1, 3] | ε [1, 3] | λabs, max [1, 3] | λem, max [1, 3] | Φfl (fluorescence quantum yield) [1, 3] | pKa [2] | Stokes' shift [1, 4] | ε [1, 4] | λabs, max [1, 4] | λem, max [1, 4] | Φfl (fluorescence quantum yield) [1, 4] | Compound | pH-dependency of fluorescence intensity (fluorescence quantum yield) [2]
17 nm | 71100 M⁻¹ cm⁻¹ | 519 nm | 536 nm | 0.002 | 13 nm | 72100 M⁻¹ cm⁻¹ | 520 nm | 533 nm | 0.55 | 3.8 |  |  |  |  |  | CC1=C(CCC(=O)O)C(C)=[N+]2C1=C(c1ccc(N)cc1)c1c(C)c(CCC(=O)O)c(C)n1[B-]2(F)F [Compound 3a, 1,3,5,7-Tetramethyl-2,6-bis-(2-carboxyethyl)-8-(4-aminophenyl)-4,4-difluoro-4-bora-3a,4a-diaza-s-indacene] | pH-dependency following the Henderson-Hasselbach equation
16 nm | 62300 M⁻¹ cm⁻¹ | 519 nm | 535 nm | 0.002 | 14 nm | 58900 M⁻¹ cm⁻¹ | 521 nm | 535 nm | 0.56 | 4.3 |  |  |  |  |  | CC1=C(CCC(=O)O)C(C)=[N+]2C1=C(c1ccc(N(C)C)cc1)c1c(C)c(CCC(=O)O)c(C)n1[B-]2(F)F [Compound 3b, 1,3,5,7-Tetramethyl-2,6-bis-(2-carboxyethyl)-8-[4-(N,N-dimethylamino)phenyl]-4,4-difluoro-4-bora-3a,4a-diaza-s-indacene] | pH-dependency following the Henderson-Hasselbach equation
17 nm | 64400 M⁻¹ cm⁻¹ | 519 nm | 536 nm | 0.002 | 13 nm | 64100 M⁻¹ cm⁻¹ | 521 nm | 534 nm | 0.56 | 6.0 |  |  |  |  |  | CCN(CC)c1ccc(C2=C3C(C)=C(CCC(=O)O)C(C)=[N+]3[B-](F)(F)n3c(C)c(CCC(=O)O)c(C)c32)cc1 [Compound 3c, 1,3,5,7-Tetramethyl-2,6-bis-(2-carboxyethyl)-8-[4-(N,N-diethylamino)phenyl]-4,4-difluoro-4-bora-3a,4a-diaza-s-indacene] | pH-dependency following the Henderson-Hasselbach equation
 |  |  |  |  |  |  |  |  |  |  | 14 nm | 73200 M⁻¹ cm⁻¹ | 520 nm | 534 nm | 0.56 | CC1=C(CCC(=O)O)C(C)=[N+]2C1=C(c1ccccc1)c1c(C)c(CCC(=O)O)c(C)n1[B-]2(F)F [Compound 3d, 1,3,5,7-Tetramethyl-2,6-bis-(2-carboxyethyl)-8-phenyl-4,4-difluoro-4-bora-3a,4a-diaza-s-indacene, reference compound] | 
